Assay: Pharmacokinetic profile of tolperisone after single and multi-dosing (150 mg regimen over 7 days) in healthy subjects under fasted and fed conditions
Details: for AUC(0-t) / AUC(inf) / Cmax / t½ / λz / AUC(0-6): mean ± SD; for Tmax: median
[1] = Day 1 - 0800 Dose, Fasted, Females
[2] = Day 1 - 0800 Dose, Fasted, Males
[3] = Day 1 - 0800 Dose, Fasted, both sexes
[4] = Day 1 - 0800 Dose, Fed, Females
[5] = Day 1 - 0800 Dose, Fed, both sexes
[6] = Day 1, fed vs fasted, both sexes
[7] = Day 2 - 2200 Dose, Fasted, Females
[8] = Day 2 - 2200 Dose, Fasted, Males
[9] = Day 2 - 2200 Dose, Fasted, both sexes
[10] = Day 2 - 2200 Dose, Fed, Females
[11] = Day 2 - 2200 Dose, Fed, both sexes
[12] = Day 7 - 0800 Dose, Fasted, Females
[13] = Day 7 - 0800 Dose, Fasted, Males
[14] = Day 7 - 0800 Dose, Fasted, both sexes
[15] = Day 7 - 0800 Dose, Fed, Females
[16] = Day 7 - 0800 Dose, Fed, both sexes
[17] = Day 7 - 2200 Dose, Fasted, Females
[18] = Day 7 - 2200 Dose, Fasted, Males
[19] = Day 7 - 2200 Dose, Fasted, both sexes
[20] = Day 7 - 2200 Dose, Fed, Females
[21] = Day 7 - 2200 Dose, Fed, both sexes

Method: Dosing Regimen: Subjects in each cohort received tolperisone according to the following regimen.
Blood samples for the measurement of the plasma concentrations of tolperisone and metabolites M1 (4-hydroxymethyltolperisone) and M4 (4-carboxy-tolperisone) were collected at the times shown in Table 8.
Bioanalytical: Plasma concentrations of tolperisone and metabolites M1 and M4 were measured using a validated LC/MS/MS assay by Pharm-analyt Laboratory, Baden Austria. The limits of quantitation (LOQ) for tolperisone, Mi, and M4 in plasma were 0.2 ng/ML, and 0.01 μg/mL, respectively.
Pharmacokinetic Analyses: Pharmacokinetic parameters for tolperisone, M1, and M4 were calculated using non-compartmental analysis. Only plasma concentrations greater than or equal to the LOQ for the respective assay were used in the pharmacokinetic analyses. Actual blood sampling times were used in all pharmacokinetic analyses. […] All pharmacokinetic calculations were done using SAS® for Windows® Version 9.1.3.
The maximum plasma concentration (Cmax) and time to Cmax (Tmax) were taken directly from the data. The elimination rate constant, λz, was calculated as the negative of the slope of the terminal log-linear segment of the plasma concentration-time curve. The range of data to be used for each subject and treatment was determined by visual inspection of a semi-logarithmic plot of concentration versus time. Elimination half-life (t½) was calculated according to the following equation: [formula] Area under the curve to the final sample with a concentration greater than or equal to the LOQ [(AUC(0-t)] was calculated using the linear trapezoidal method and extrapolated to infinity [AUC(inf)] using: [formula] where Ctf is the final concentration≧LOQ.
The maximum plasma concentration (Cmax) and time to Cmax (Tmax) were taken directly from the data.
The maximum plasma concentration (Cmax) and time to Cmax (Tmax) were taken directly from the data. The elimination rate constant, λz, and half-life, t½, were calculated as described for the 0800 dose on Day 1 (above). Areas under the curve to the final sample with a concentration greater than or equal to the LOQ [(AUC(O-t)] and over the 6-hour dosing interval [AUC(0-6)] were calculated using the linear trapezoidal method.

- AUC(0-t) [1]: 2.79 ± 0.37 (3) h · μg/mL
- AUC(inf) [1]: 2.86 ± 0.40 (3) h · μg/mL
- Cmax [1]: 1.31 ± 0.05 (3) μg/mL
- t½ [1]: 0.99 ± 0.04 (3) h
- λz [1]: 0.6981 ± 0.0253 (3) h^−1
- Tmax [1]: 1.00 (3) h
- AUC(0-t) [2]: 2.26 ± 0.42 (7) h · μg/mL
- AUC(inf) [2]: 2.34 ± 0.44 (7) h · μg/mL
- Cmax [2]: 1.31 ± 0.44 (7) μg/mL
- t½ [2]: 1.10 ± 0.08 (7) h
- λz [2]: 0.6321 ± 0.0488 (7) h^−1
- Tmax [2]: 0.75 (7) h
- AUC(0-t) [3]: 2.42 ± 0.46 (10) h · μg/mL
- AUC(inf) [3]: 2.49 ± 0.48 (10) h · μg/mL
- Cmax [3]: 1.31 ± 0.36 (10) μg/mL
- t½ [3]: 1.07 ± 0.088 (10) h
- λz [3]: 0.6519 ± 0.0524 (10) h^−1
- Tmax [3]: 0.88 (10) h
- AUC(0-t) [4]: 2.74 ± 0.74 (4) h · μg/mL
- AUC(inf) [4]: 2.94 ± 0.84 (4) h · μg/mL
- Cmax [4]: 1.02 ± 0.18 (4) μg/mL
- t½ [4]: 1.16 ± 0.21 (4) h
- λz [4]: 0.6189 ± 0.1389 (4) h^−1
- Tmax [4]: 2.00 (4) h
- AUC(0-t) (Day 1 - 0800 Dose, Fed, Males): 2.32 ± 0.70 (6) h · μg/mL
- AUC(inf) (Day 1 - 0800 Dose, Fed, Males): 2.43 ± 0.76 (6) h · μg/mL
- Cmax (Day 1 - 0800 Dose, Fed, Males): 1.27 ± 0.45 (6) μg/mL
- t½ (Day 1 - 0800 Dose, Fed, Males): 1.17 ± 0.19 (6) h
- λz (Day 1 - 0800 Dose, Fed, Males): 0.6047 ± 0.0938 (6) h^−1
- Tmax (Day 1 - 0800 Dose, Fed, Males): 0.88 (6) h
- AUC(0-t) [5]: 2.49 ± 0.70 (10) h · μg/mL
- AUC(inf) [5]: 2.64 ± 0.79 (10) h · μg/mL
- Cmax [5]: 1.17 ± 0.38 (10) μg/mL
- t½ [5]: 1.16 ± 0.19 (10) h
- λz [5]: 0.6104 ± 0.1067 (10) h^−1
- Tmax [5]: 1.50 (10) h
- decrease in the mean value for Cmax on administration with food [6]: 11%
- increase in the mean value for AUC(inf) on administration with food [6]: 6%
- Cmax [7]: 0.96 ± 0.48 (3) μg/mL
- Tmax [7]: 1.00 (3) h
- Cmax [8]: 0.53 ± 0.32 (7) μg/mL
- Tmax [8]: 1.50 (7) h
- Cmax [9]: 0.66 ± 0.40 (10) μg/mL
- Tmax [9]: 1.25 (10) h
- Cmax [10]: 0.82 ± 0.41 (4) μg/mL
- Tmax [10]: 1.25 (4) h
- Cmax (Day 2 - 2200 Dose, Fed, Males): 0.75 ± 0.42 (6) μg/mL
- Tmax (Day 2 - 2200 Dose, Fed, Males): 1.00 (6) h
- Cmax [11]: 0.78 ± 0.40 (10) μg/mL
- Tmax [11]: 1.00 (10) h
- mean AUC(0-6) under fed conditions lower than fasted (Day 7, 0800 dose, both sexes): 3%
- mean Cmax under fed conditions lower than fasted (Day 7, 0800 dose, both sexes): 28%
- AUC(0-6) [12]: 2.86 ± 0.42 (3) h · μg/mL
- Cmax [12]: 1.57 ± 0.25 (3) μg/mL
- t½ [12]: 1.12 ± 0.08 (3) h
- λz [12]: 0.6226 ± 0.0416 (3) h^−1
- Tmax [12]: 0.75 (3) h
- AUC(0-6) [13]: 2.06 ± 0.39 (7) h · μg/mL
- Cmax [13]: 1.04 ± 0.32 (7) μg/mL
- t½ [13]: 1.20 ± 0.07 (7) h
- λz [13]: 0.5809 ± 0.0358 (7) h^−1
- Tmax [13]: 0.75 (7) h
- AUC(0-6) [14]: 2.30 ± 0.54 (10) h · μg/mL
- Cmax [14]: 1.19 ± 0.38 (10) μg/mL
- t½ [14]: 1.17 ± 0.081 (10) h
- λz [14]: 0.5934 ± 0.0406 (10) h^−1
- Tmax [14]: 0.75 (10) h
- AUC(0-6) [15]: 2.31 ± 0.39 (4) h · μg/mL
- Cmax [15]: 0.95 ± 0.45 (4) μg/mL
- t½ [15]: 1.10 ± 0.20 (3) h
- λz [15]: 0.6452 ± 0.1199 (3) h^−1
- Tmax [15]: 2.00 (4) h
- AUC(0-6) (Day 7 - 0800 Dose, Fed, Males): 2.17 ± 0.57 (6) h · μg/mL
- Cmax (Day 7 - 0800 Dose, Fed, Males): 0.80 ± 0.24 (6) μg/mL
- t½ (Day 7 - 0800 Dose, Fed, Males): 1.21 ± 0.30 (6) h
- λz (Day 7 - 0800 Dose, Fed, Males): 0.5978 ± 0.1116 (6) h^−1
- Tmax (Day 7 - 0800 Dose, Fed, Males): 1.75 (6) h
- AUC(0-6) [16]: 2.23 ± 0.49 (10) h · μg/mL
- Cmax [16]: 0.86 ± 0.32 (10) μg/mL
- t½ [16]: 1.17 ± 0.26 (09) h
- λz [16]: 0.6136 ± 0.1092 (09) h^−1
- Tmax [16]: 2.00 (10) h
- Cmax [17]: 1.40 ± 0.21 (3) μg/mL
- Tmax [17]: 1.50 (3) h
- Cmax [18]: 0.844 ± 0.243 (7) μg/mL
- Tmax [18]: 1.03 (7) h
- Cmax [19]: 1.01 ± 0.35 (10) μg/mL
- Tmax [19]: 1.27 (10) h
- Cmax [20]: 0.99 ± 0.25 (4) μg/mL
- Tmax [20]: 1.25 (4) h
- Cmax (Day 7 - 2200 Dose, Fed, Males): 0.94 ± 0.25 (6) μg/mL
- Tmax (Day 7 - 2200 Dose, Fed, Males): 1.04 (6) h
- Cmax [21]: 0.96 ± 0.24 (10) μg/mL
- Tmax [21]: 1.04 (10) h
- accumulation (increase in Cmax over the seven days of dosing) (seven days of dosing, up to 150 mg three times daily): little or no accumulation
- mean elimination half-life (summary, not dependent on sex, food or duration of dosing): ~1.1 h
Structure (SMILES): CC(CN1CCCCC1)C(=O)c1ccc(C(=O)O)cc1 (racemic) [Metabolite M4, 4-carboxy-tolperisone]

Source: patent US20070249673A1, “Method for administering tolperisone” (priority 2006, published 2007)
